Data as given in PMC12308784, “Organometallic Half-Sandwich Complexes of 1,10-Phenanthroline Derivatives with Improved Solubility, Albumin-Binding, and Nanoformulation Potential Targeting Drug Resistance in Cancer” (Inorganic Chemistry, 2025).

Assay: release in PBS’ by modified equilibrium dialysis
Type: physicochemical
Conditions: nonformulated complex, PBS’ pH 7.4
Description: The release behavior of RhCp*BP in PBS’ buffer (pH = 7.4) was monitored using a modified equilibrium dialysis device (Figures S22 and S23), and the absorbance (proportional to the complex concentration) was measured for the dialysate phase by online UV–vis spectrophotometry over a period of 16 h.
The release experiments were conducted in PBS’ medium using modified rapid equilibrium dialysis (RED) inserts of Thermo Scientific. Briefly, the receiver compartment of the RED insert was removed in order to fit the dialysis bag into a regular 1 cm quartz cuvette (see Figure S19 for the layout). The dialysis bag (donor compartment) contained 300 μL of aqueous solution of the formulation or the metal complex alone (c = 60 μM) or the HSA or HTP-based formulations. The cuvette was the acceptor/receiver compartment containing PBS’ buffer (2.0 mL). The whole device was capped with the parafilm and the buffer in the cuvette was continuously stirred; no stirring was applied in the RED insert. The release of the complex into the buffer was monitored online using an Agilent Cary 3500 eight-channel photometer. All samples were done in duplicate.

time for complete diffusion into PBS’ medium: approximately 9 h
Substance: [Rh(III)(η^5-C5Me5)(bathophenanthroline)Cl]Cl [RhCp*BP]
